Literature values in patent publication US20250115578A1, “AROMATIC FUSED RING NAV1.8 INHIBITOR, AND USE THEREOF” (CHENGDU KANGHONG PHARMACEUTICAL CO., LTD., priority 2022, published 2025).
Where two headings read alike, the source gives them in different places.

Experiments:
CFA and SNL models = details: cited from earlier work
animal models of pain = details: carrageenan, CFA, CCI, SNL and acute mechanical pain models; cited from earlier work
[1] = test system: STZ-induced diabetic neuropathic heat pain model; details: cited from earlier work
postoperative toothache = details: phase II; cited from earlier work

In the case of `CNC(=O)c1ccc(-c2cc(Cl)cc(Cl)c2Cl)c(N)n1` [PF-01247324], the Pain relief (CFA and SNL models) is given as “significant pain relief”.

For `COc1cc(NC(=O)c2ccc(-c3ccc(Cl)cc3)o2)cc(OC)c1` [Example A-803467], the “Pain relief effect compared with the model group” value (animal models of pain) is given as “exceeding 50%”, the “Duration of efficacy versus lidocaine” value ([1]; local injection of plantar) is given as “lasted longer” and the Efficacy versus lidocaine ([1]; local injection of plantar) is given as “equivalent”. The Efficacy versus lidocaine ([1]; systemic administration) was “superior to lidocaine”.

In the case of `COc1ccc(Cl)c(-c2ccc(NC(=O)c3ccnn3C)nc2N)c1` [PF-04531083], the Activity versus placebo (postoperative toothache) is listed as “did not show better activity than placebo”.
